Experiment [1] deals with Leigh (GM03672) fibroblasts. Description: Erastin cytoprotection assay, Leigh fibroblasts. It counts as cell-based, human. Particulars: 2 μM erastin, 250 μM FAC, 50 μM AA, 10-1000 nM compound, 24 h. The protocol: (§1) Briefly, Healthy (GM08402) or Leigh (GM03672) fibroblasts were resuspended in assay medium, seeded at 10,000 cells per well in a clear, tissue cultured-treated, 96-well plate, and incubated at 37° C. overnight. Following the incubation, supernatant was manually aspirated from wells, taking care not to disrupt cells. Fibroblasts were co-treated in a final volume of 100 μL with 2 μM erastin (Millipore Corp., Cat #), 250 μM ferric ammonium citrate (FAC), 50 μM ascorbic acid (AA), and a titration of one of each of Compounds 1 to 4 or Vatiquinone ranging from 10 to 1000 nM. Following another 24-hour incubation at 37° C., cell viability was measured using the CellTiter-Glo Luminescent Cell Viability Kit (ProMega) per Manufacturer's instructions. Luminescence units were quantified by GEN5 software on a BioTek SYNERGY neo2 plate reader (LUM filter).
(§2) Briefly, erastin, like RSL3, is known to induce ferroptosis. […] Erastin was incubated with cell fibroblasts for 24 hours to induce ferroptosis. Cells were co-treated with each of Compounds 1 to 4, or Vatiquinone as the test articles. Test articles were administered at a range of concentrations to derive a curve. Cell viability was determined using a commercially available kit that measures ATP production. […] An increase in cell viability as determined by the assay is considered to be protective against ferroptosis.

Experiment [2] deals with Leigh syndrome (GM03672) fibroblasts. Description: RSL3 cytoprotection assay, Leigh fibroblasts. It counts as cell-based, human. Conditions: for relative anti-ferroptosis properties (comparison between test articles): 375 nM RSL3, 10-1000 nM compound, 4 h. The protocol: (§3) Patient fibroblasts were acquired from Coriell Institute for Medical Research (Camden, NJ, USA). GM03672 is an untransformed fibroblast cell line from a Leigh syndrome patient carrying an unknown mutation. GM08402 is an untransformed fibroblast from an apparently healthy individual. Cells were cultured at 37° C. at 5% CO2 in Eagle's Minimum Essential Medium (MEM, Corning), which was supplemented with Earle's salts and non-essential amino acids, 15% qualified fetal bovine serum, and 1% penicillin/streptomycin ([…]) to yield “Complete MEM.”
(§4) To initiate the RSL3 cytoprotection experiment, Healthy (GM08402) and Leigh syndrome (GM03672) fibroblasts were resuspended in Complete MEM. Cells were seeded at 10,000 cells per well in a clear, tissue cultured-treated, 96-well plate and incubated at 37° C. overnight. Following the incubation, supernatant was manually aspirated, taking care not to disrupt cells. […]. Luminescence units were quantified by GEN5 software on a BioTek SYNERGY neo2 plate reader (LUM filter).
(§5) RSL3 is an inhibitor of the enzyme glutathione peroxidase 4 (GPX4), which decreases lipid peroxides. RSL3 inhibition of GPX4 induces ferroptosis through iron-dependent accumulation of lipid ROS. In this assay, Healthy or Leigh fibroblasts were treated for 4 hours with RSL3 to induce ferroptosis or left untreated. Endogenous ATP levels were measured as an indicator of cellular viability using a commercially available kit (CellTiter-Glo® 2.0 Cell Viability Assay (Promega)).
(§6) […]. […] Briefly, ferroptosis was induced with 1 μM RSL3 in healthy fibroblast cells and 375 nM RSL3 in fibroblasts from a patient with Leigh syndrome.
(§7) A preliminary experiment was performed to determine the effect of RSL3 injury on the fibroblasts of a healthy individual (cell line: GM08402) and the fibroblasts of a patient diagnosed with Leigh syndrome (cell line: GM03672).

Experiment [3] deals with Healthy (GM08402) fibroblasts. Description: RSL3 cytoprotection assay, healthy fibroblasts. Format: cell-based, human. Conditions: for relative anti-ferroptosis properties (comparison between test articles): 1 μM RSL3, 10-1000 nM compound, 4 h. The protocol:
as §3, §4, §5, §6, §7

Experiment [4] relates to rotenone-inhibited Complex I. Put plainly: Complex I-bypass assay ((CI)-bypass assay), high-resolution respirometry O2 consumption. Format: cell-based, human. Conditions: Leigh (GM03672) fibroblasts, 0.5 μM rotenone; for Complex I by-pass activity (restoration of oxygen consumption rate): titrations 125 nM to 8 μM. On the procedure:
All high-resolution respirometry experiments were conducted using the Oroboros O2k-Fluorespirometer (Oroboros, Innsbruck, Austria). The Oroboros O2k-Fluorespirometer was calibrated daily using the air calibration protocol on DatLab 7.4 (Oroboros, Innsbruck, Austria). Prior to each experiment requiring the fluorescence module, the AmpR calibration protocol from DatLab 7.4 was used to calibrate the fluorescence signal. Initial data analysis, including setting of marks, was performed using DatLab 7.4.
Complex I-bypass activity was assessed using HRR to measure O2 consumption. Briefly, Leigh (GM03672) fibroblasts were harvested with trypsin, pelleted at 300×g centrifugation, and resuspended in prewarmed, complete MEM. Cells were added to each chamber via buffer replacement at a concentration of 1-2 million per mL. The chambers were closed to initiate measurement of O2 consumption. The slope negative signal, which is a derivative of O2 consumption, was allowed to stabilize over the course of several minutes. Using a Hamilton syringe to allow for continuous measurement of O2 consumption, glutamate (10 mM final concentration) and malate (0.1 mM final concentration) were added to the closed chamber through the central capillary of the stopper. The slope negative signal was stabilized for several minutes, and rotenone was added at a final concentration of 0.5 μM. One of Compounds 1 to 4 or Vatiquinone was added at increasing concentrations, allowing for several minutes of stabilization of the slope negative signal between titrations. Marks were set at signal plateaus in between titrations. Values were exported and analyzed using GraphPad Prism 9. […] Responsiveness of cells was confirmed with idebenone.
Statistical analysis was performed using GraphPad Prism 9. Complex I-bypass data were fit using nonlinear sigmoidal 4P fit. RET Assay data were analyzed by 2-way ANOVA using a p-value of 0.05.
The Complex 1-bypass assay ((CI)-bypass Assay) evaluates the capacity of compounds to donate electrons into the electron transport chain (ETC) when Complex I is impaired or otherwise deficient. Normally, electrons feed into the ETC through Complex I. In instances where Complex I is impaired, electrons must enter the ETC downstream of Complex I for oxidative phosphorylation (OXPHOS) to occur. Complex I is composed of 46 subunits, encoded by mitochondrial and nuclear genes. Due to its large size, Complex I mutations are a common cause of ETC dysfunction in mitochondrial diseases. Indeed, mutations in the genes that encode subunits for Complex I are important causes of Leigh and Leigh-like syndrome.
Using this assay, the ability of Compounds 1 to 4 and Vatiquinone to bypass rotenone-inhibited Complex I was determined. Rotenone is a widely used Complex I inhibitor and blocks the transfer of electrons from the iron-sulfur complexes on Complex I to ubiquinone. Thus, when rotenone is introduced to cells underdoing routine respiration, a decrease in oxygen consumption is observed, which is indicative of disrupted OXPHOS. The ability of Compounds 1 to 4 and Vatiquinone to “bypass” Complex I and restore OXPHOS is measured by an increase in oxygen consumption rate following addition of the compound to the chamber.
In executing this assay, in each instance, fibroblasts are added to each chamber of the Oroboros Oxygraph-2K (the “O2k”). The O2k generates two traces: 1) total oxygen consumption over time, 2) the rate of oxygen consumption over time (slope negative). Baseline respiration is established for several minutes by allowing the slope negative to stabilize. Rotenone is introduced to each chamber at a final concentration of 0.5 μM. The addition of rotenone is expected to cause a marked reduction of OXPHOS as measured by a decreased rate of oxygen consumption. Then the test article (i.e., in this case one of Compounds 1 to 4 or Vatiquinone) is added to the chamber. […]

The subject of experiment [5] is Healthy (GM08402) fibroblasts. Put plainly: Erastin cytoprotection assay, healthy fibroblasts. Conditions: 2 μM erastin, 250 μM FAC, 50 μM AA, 10-1000 nM compound, 24 h. Format: cell-based, human. The protocol: as §1, §2
The conditions of experiment [6]: patients with pontocerebellar hypoplasia type 6; cited from earlier work.
For experiment [7], the system named is Leigh fibroblasts (GM03672). Put plainly: Mitochondrial membrane potential (TMRM flow cytometry) in RSL3-treated Leigh fibroblasts. It counts as cell-based, human. Particulars: 1 μM RSL3 alone, 4 h. The protocol: Leigh fibroblasts (GM03672) were seeded in a 24-well, tissue culture-treated plate in complete MEM (MEM+15% FBS+1% penicillin/streptomycin) at a density of 1×10^5 cells per 500 μL and incubated overnight at 37° C. at 5% CO2. Cells were treated for 4 hours at 37° C. with either 1 μM RSL3, 1 μM RSL3 with 1 μM Compound 3 or media for untreated cells. Following the incubation, supernatant was removed and cells were treated with 0.25% trypsin for 5 min at 37° C. Trypsin was neutralized with an equal part MEM. Cells were dislodged with gentle pipetting and pelleted at 300×g for 5 minutes. Pellets were resuspended in 500 μL Fluobrite DMEM and cells were transferred to a 96-well, v-bottom plate. Cells were stained with 20 nM MitoTracker Green and 100 nM tetramethylrhodamine methyl ester (TMRM) Samples were incubated for 25 minutes at 37° C. Each well was mixed immediately prior to analysis to resuspend settled cells. Fluorescence intensity was measured on the BD Accuri C6 Plus Flow Cytometer. A minimum of 10,000 events per sample was collected. Data analysis was performed using FloJo vs. 10. Gating was performed by establishing an initial forward scatter vs. side scatter gate. MitoTracker Green positive, TMRM positive cells were identified through subsequent gating. Median fluorescence intensity (MFI) of TMRM fluorescence was determined. Using GraphPad Prism 10, statistical significance between groups was determined by One-way ANOVA. A p-value of less than 0.05 was considered significant. Results are presented graphically in FIG. 20.

Another experiment relates to 15-lipoxygenase (15-LO). Put plainly: 15(S)-HETE ELISA following RSL3 treatment, Leigh fibroblasts. It counts as cell-based, human. Conditions: 700 nM RSL3, 1 μM compound, 24 h. On the procedure:
Samples for the 15(S)-HETE ELISA were generated by the RSL3 cytoprotection assay described above. Healthy or Leigh fibroblasts were resuspended in assay medium, seeded at 200,000 cells per well in a clear, tissue culture-treated, 24-well plate. Cells were incubated at 37° C. for 24 hours. Supernatant was aspirated from each well following the incubation.
Fibroblasts from both a healthy individual and a patient diagnosed with Leigh syndrome were examined (but not all compounds were examined in each cell type). Activation of ferroptosis has been implicated as a driver of epilepsy, which is commonly associated with Leigh syndrome. […] Kahn-Kirby et al. PLOS One. […] As a key regulator of ferroptosis, 15-LO serves as a rational therapeutic target in Leigh syndrome.

The source of these data is patent US20250090562A1, “METHODS, COMPOSITIONS AND USES RELATED TO THE TREATMENT AND PREVENTION OF LEIGH’S SYNDROME” (Stealth BioTherapeutics Inc., priority 2023, published 2025).

Structures are written as SMILES. Entries after “also recorded” stand apart in the source; their conditions may differ.

Regarding `CC(C)=CCC/C(C)=C/CC/C(C)=C/CC[C@@](C)(O)CCC1=C(C)C(=O)C(C)=C(C)C1=O` [Vatiquinone, reference compound], the “relative protective effect against erastin induced ferroptosis (cell viability, ATP)” value in experiment [1] is “superior in its protective effect as compared with Compounds 1 and 4”; in experiment [5], “about equally protective”. Moreover, the “relative anti-ferroptosis properties (comparison between test articles)” value in experiment [2] and in experiment [3] was “roughly equivalent in their anti-ferroptosis properties” each time. The “Complex I by-pass activity (restoration of oxygen consumption rate)” value in experiment [4] is “no CI-bypass activity; also recorded: inactive”. The effect on seizures result in experiment [6] is “reduce the incidence of seizures; also recorded: decrease seizure frequency and morbidity”.

`COC(=O)c1ccc([C@H]2c3[nH]c4ccccc4c3C[C@H](C(=O)OC)N2C(=O)CCl)cc1` [RSL3, (1S,3R)-Methyl 2-(2-chloroacetyl)-2,3,4,9-tetrahydro-1-[4-(methoxycarbonyl)phenyl]-1H-pyrido[3,4-b]indole-3-carboxylate, reference compound]: the “RSL3 concentration sufficient for 25-30% killing of cells” value in experiment [2] (Leigh fibroblasts GM03672, 4 h) was 700 nM; in experiment [3] (healthy fibroblasts GM08402, 4 h), 1 µM. Also, the “mitochondrial membrane potential (TMRM MFI)” value in experiment [7] was “significant reduction in mitochondrial membrane potential”.

Regarding `COC1=C(OC)C(=O)C(CCCCCCCCCC(F)(F)F)=C(C)C1=O` [Compound 1], the “relative protective effect against erastin induced ferroptosis (cell viability, ATP)” value in experiment [1] and in experiment [5] was “about equally protective” each time. Besides, the “relative anti-ferroptosis properties (comparison between test articles)” value in experiment [2] and in experiment [3] was “roughly equivalent in their anti-ferroptosis properties” in each case. The EC50 in experiment [4] (oxygen consumption rate, read-out: EC50 value, Complex I by-pass activity) is ~13.7 µM. Also, the “Complex I by-pass activity (restoration of oxygen consumption rate)” value in experiment [4] is listed as “restored oxygen consumption rate in a dose-dependent manner”. Moreover, in the experiment on 15-lipoxygenase (15-LO), the “relative 15-LO inhibition (comparison between test articles)” value is “superior to Compounds 2, 3 and 4”.
